Starred links: 1 amine or outer side, 2 acyl side, 3 side chain; linkers in the order of their positions; H or OH if unused. Non-standard residues stand in square brackets, D forms with d. Residues, ends and D or L forms follow the SMILES beside them. Groups on a side chain read outwards from the residue. *: point of attachment. C18 diacid = O=C(O)CCCCCCCCCCCCCCCCC(=O)*; γGlu = O=C(O)[C@H](CCC(=O)[*:2])N[*:1]; AEEA = NCCOCCOCC(=O)O; Aib = CC(C)(N)C(=O)O
Experiment: Effect on blood pressure, telemetry (Example 17)
Format: in vivo
Details: Sprague Dawley rats, 0.1 mg/kg SC
Protocol: The effect of the compounds on blood pressure was determined in telemetry studies in Sprague Dawley rats at a dosage of 0.1 mg/kg SC.
The rats were previously implanted with a telemetry device (DSI, Saint-Paul, USA, HD-S10, HD-S11 or HD S21) and allowed to recover for a minimum period of 2 weeks before treatment with vehicle or the different peptides. Blood pressure (BP) was recorded through a catheter inserted into the abdominal aorta. The device body was placed in the abdomen. At the end of surgery, animals were placed in individual cages until the end of the study.
Pressure signals were recorded for one hour before the treatment (basal period). Thereafter, the subcutaneous administration of the test compound or its vehicle was performed, under continuous recording of the signal over a 48-hour period. Data acquisition was performed using Hem 4.3 acquisition software (Notocord®, Le Pecq, France) connected to the telemetry device. Hemodynamic parameters were recorded during a […] before treatment and every 4-hour period following subcutaneous administration over 48 hours.
Investigated parameters (calculated from BP signal) were Heart Rate (HR) in beats per minute (bpm), Diastolic and Systolic Blood Pressure (DBP) in mmHg, and Mean Blood Pressure (MBP) in mmHg.
Data from Hem were manipulated using Microsoft Excel®. For each parameter, a basal value was determined as the average calculated over a 1-hour period during the pre-treatment sequence, and the values post treatment were calculated over 4-hour periods ([0-4], [4-8], [8-12], [12-16], [16-20], [20-24], [24-28], [32-36], [36-40], [40-44] and [44-48] hours) covering the 48-hour period following administration.
Representative data are presented in Table 15 below, in which “n” represents the number of animals for which individual values were obtained and “Duration” indicates the last time point for which a significant effect on BP was still seen: Table 15

Structure (SMILES)	Duration (h): last time point for which a significant effect on BP was still seen	Effect on Systolic Pressure % change from baseline 8 h	Effect on Systolic Pressure % change from baseline 24 h
CC[C@H](C)[C@H](N)C(=O)N[C@H](C(=O)N[C@@H](CC(C)C)C(=O)N[C@@H](CO)C(=O)N[C@@H](CC(C)C)C(=O)N[C@@H](CC(=O)O)C(=O)N[C@@H](C(=O)N1CCC[C@H]1C(=O)N[C@H](C(=O)N[C@@H](CCCCN)C(=O)N[C@@H](CC(C)C)C(=O)N[C@@H](CCCCNC(=O)COCCOCCNC(=O)COCCOCCNC(=O)CC[C@H](NC(=O)CCCCCCCCCCCCCCCCC(=O)O)C(=O)O)C(=O)N[C@@H](CCC(N)=O)C(=O)N[C@H](C(=O)N[C@@H](CC(C)C)C(=O)N[C@@H](CC(C)C)C(=O)N[C@@H](CCC(=O)O)C(=O)N[C@@H](CCC(N)=O)C(=O)N[C@@H](C)C(=O)N[C@@H](CCCNC(=N)N)C(=O)N[C@@H](CCC(N)=O)C(=O)N[C@@H](CCCCN)C(=O)NC(C)(C)C(=O)N[C@@H](CCC(N)=O)C(=O)N[C@@H](CCCNC(=N)N)C(=O)N[C@@H](CCC(=O)O)C(=O)N[C@@H](CCC(N)=O)C(=O)N[C@@H](C)C(=O)N[C@@H](CCC(=O)O)C(=O)N[C@@H](CCCCN)C(=O)N[C@@H](CC(N)=O)C(=O)N[C@@H](CCCCN)C(=O)N[C@@H](CCCNC(=N)N)C(=O)N[C@H](C(=O)N[C@@H](CC(C)C)C(=O)N[C@@H](CCC(=O)O)C(=O)N[C@@H](CCCNC(=N)N)C(=O)N[C@H](C(N)=O)C(C)C)[C@@H](C)CC)[C@@H](C)CC)[C@@H](C)CC)C(C)C)C(C)C [SEQ ID NO: 142, IVLSLDvPIKLK*QILLEQARQKAibQREQAEKNKRILERV-NH2] (H-IVLSLD[dV]PIKLK([AEEA-AEEA-γGlu-C18 diacid])QILLEQARQK[Aib]QREQAEKNKRILERV-NH2)	30 h	−22.2%	−6.5%
CC[C@H](C)[C@H](N)C(=O)N[C@H](C(=O)N[C@@H](CC(C)C)C(=O)N[C@@H](CO)C(=O)N[C@@H](CC(C)C)C(=O)N[C@@H](CC(=O)O)C(=O)N[C@@H](C(=O)N1CCC[C@H]1C(=O)N[C@H](C(=O)N[C@@H](CCCCN)C(=O)N[C@@H](CC(C)C)C(=O)N[C@@H](CCCCNC(=O)COCCOCCNC(=O)COCCOCCNC(=O)CC[C@H](NC(=O)CCCCCCCCCCCCCCCCC(=O)O)C(=O)O)C(=O)N[C@@H](CCC(N)=O)C(=O)N[C@H](C(=O)N[C@@H](CC(C)C)C(=O)N[C@@H](CC(C)C)C(=O)N[C@@H](CCCCN)C(=O)N[C@@H](CCC(N)=O)C(=O)N[C@@H](CCC(=O)O)C(=O)N[C@@H](CCCNC(=N)N)C(=O)N[C@@H](CCC(N)=O)C(=O)N[C@@H](CCCCN)C(=O)N[C@@H](CCCCN)C(=O)NC(C)(C)C(=O)N[C@@H](CCCNC(=N)N)C(=O)N[C@@H](CCC(=O)O)C(=O)N[C@@H](CCC(N)=O)C(=O)N[C@@H](C)C(=O)N[C@@H](CCC(=O)O)C(=O)N[C@H](C(=O)N[C@@H](CC(N)=O)C(=O)N[C@@H](CCCCN)C(=O)N[C@@H](CCCNC(=N)N)C(=O)N[C@H](C(=O)N[C@@H](CC(C)C)C(=O)N[C@@H](CCC(=O)O)C(=O)N[C@@H](CCCNC(=N)N)C(=O)N[C@H](C(N)=O)C(C)C)[C@@H](C)CC)[C@@H](C)O)[C@@H](C)CC)[C@@H](C)CC)C(C)C)C(C)C [SEQ ID NO: 149, IVLSLDvPIKLK*QILLKQERQKKAibREQAETNKRILERV-NH2] (H-IVLSLD[dV]PIKLK([AEEA-AEEA-γGlu-C18 diacid])QILLKQERQKK[Aib]REQAETNKRILERV-NH2)	30 h	−11.5%	−2.5%
